Results from patent US12252701B2, “Chimeric antigen receptor T cell therapy” (KITE PHARMA, INC., priority 2020, dated 2025).
Like-named read-outs stand apart in the source and are kept apart here.

Key:
[1] = cited from earlier work
[2] = test system: CD19 CAR T cells; assay: CAR T cell cytokine production (Luminex) under CD19 K562, KIP-1 or CD2/3/28 stimulation; settings: 72 h; for IC50: Homo sapiens, T-cell
[3] = test system: CAR-T cells; assay: CAR-T cell expansion assay (KIP-1 or CD3/CD28 stimulation); settings: for % viability: CD3/CD28; for % viabili.: CD3/CD28 stimulation; for % viabi.: KIP-1 stimulation
[4] = in vitro; settings: human, CAR-T cells
[5] = test system: phospho-STAT-1, -3 and -5 in purified CD14+ monocytes; assay: Intracellular phospho-STAT-1, -3, -5 by BD PhosphoFlow in purified monocytes; format: cell-based, human; set-up: Monocyte-specific pSTAT1 signaling, inhibition / Monocyte-specific pSTAT3 signaling, inhibition / Monocyte-specific pSTAT5 signaling, inhibition: concentration or dose not given beside the values; settings: purified CD14+ monocytes
Procedure: Further experiments were performed to look at impacts of JAK inhibitors on STAT phosphorylation in various immune cell subsets.

[6] = test system: NALM6.GFP.LUC.CD19 target cells; assay: Serial killing assay of CAR-T, percent cytotoxicity by luciferase detection; settings: two different E:T ratios, dose titration
[7] = test system: Nalm-6 luc; assay: CAR-T cell killing assay (luciferase viability of tumor cells)
[8] = CAR T cell-derived supernatant, 30 min

IC50 ([2]; read-out: Suppression of cytokine production, GMCSF (IC50), CD3/CD28 stimulation, 72 h): < 100 nM
IC50 ([2]; read-out: Suppression of cytokine production, GMCSF (IC50), K562-CD19 stimulation, 72 h): > 10000 nM
IC50 ([2]; read-out: Suppression of cytokine production, GMCSF (IC50), KIP-1 stimulation, 72 h): < 100 nM
IC50 ([2]; read-out: Suppression of cytokine production, GzB (IC50), CD3/CD28 stimulation, 72 h): < 100 nM
IC50 ([2]; read-out: Suppression of cytokine production, GzB (IC50), K562-CD19 stimulation, 72 h): 1030 nM
IC50 ([2]; read-out: Suppression of cytokine production, GzB (IC50), KIP-1 stimulation, 72 h): > 10000 nM
IC50 ([2]; read-out: Suppression of cytokine production, IFNg (IC50), CD3/CD28 stimulation, 72 h): > 10000 nM
IC50 ([2]; read-out: Suppression of cytokine production, IFNg (IC50), KIP-1 stimulation, 72 h): > 10000 nM
IC50 ([2]; read-out: Suppression of cytokine production, IL-2Ra (IC50), CD3/CD28 stimulation, 72 h): < 100 nM
IC50 ([2]; read-out: Suppression of cytokine production, IL-2Ra (IC50), K562-CD19 stimulation, 72 h): < 100 nM
IC50 ([2]; read-out: Suppression of cytokine production, IL-2Ra (IC50), KIP-1 stimulation, 72 h): < 100 nM
IC50 ([2]; read-out: Suppression of cytokine production, IL-6 (IC50), CD3/CD28 stimulation, 72 h): < 100 nM
IC50 ([2]; read-out: Suppression of cytokine production, IL-6 (IC50), KIP-1 stimulation, 72 h): < 100 nM
IC50 ([2]; read-out: Suppression of cytokine production, IL-8 (IC50), CD3/CD28 stimulation, 72 h): < 100 nM
IC50 ([2]; read-out: Suppression of cytokine production, IL-8 (IC50), K562-CD19 stimulation, 72 h): < 100 nM
IC50 ([2]; read-out: Suppression of cytokine production, IL-8 (IC50), KIP-1 stimulation, 72 h): < 100 nM
IC50 ([2]; read-out: Suppression of cytokine production, IL-10 (IC50), CD3/CD28 stimulation, 72 h): < 100 nM
IC50 ([2]; read-out: Suppression of cytokine production, IL-10 (IC50), K562-CD19 stimulation, 72 h): < 100 nM
IC50 ([2]; read-out: Suppression of cytokine production, IL-10 (IC50), KIP-1 stimulation, 72 h): < 100 nM
IC50 ([2]; read-out: Suppression of cytokine production, MCP-1 (IC50), CD3/CD28 stimulation, 72 h): < 100 nM
IC50 ([2]; read-out: Suppression of cytokine production, MCP-1 (IC50), K562-CD19 stimulation, 72 h): < 100 nM
IC50 ([2]; read-out: Suppression of cytokine production, MCP-1 (IC50), KIP-1 stimulation, 72 h): < 100 nM
IC50 ([2]; read-out: Suppression of cytokine production, MIG (IC50), CD3/CD28 stimulation, 72 h): < 100 nM
IC50 ([2]; read-out: Suppression of cytokine production, MIG (IC50), K562-CD19 stimulation, 72 h): < 100 nM
IC50 ([2]; read-out: Suppression of cytokine production, MIG (IC50), KIP-1 stimulation, 72 h): < 100 nM
IC50 ([2]; read-out: Suppression of cytokine production, MIP-1a (IC50), CD3/CD28 stimulation, 72 h): < 100 nM
IC50 ([2]; read-out: Suppression of cytokine production, MIP-1a (IC50), K562-CD19 stimulation, 72 h): < 100 nM
IC50 ([2]; read-out: Suppression of cytokine production, MIP-1a (IC50), KIP-1 stimulation, 72 h): 708 nM
IC50 ([2]; read-out: Suppression of cytokine production, MIP-1b (IC50), CD3/CD28 stimulation, 72 h): < 100 nM
IC50 ([2]; read-out: Suppression of cytokine production, MIP-1b (IC50), K562-CD19 stimulation, 72 h): < 100 nM
IC50 ([2]; read-out: Suppression of cytokine production, MIP-1b (IC50), KIP-1 stimulation, 72 h): 146 nM
IC50 ([2]; read-out: Suppression of cytokine production, Perforin (IC50), CD3/CD28 stimulation, 72 h): < 100 nM
IC50 ([2]; read-out: Suppression of cytokine production, Perforin (IC50), K562-CD19 stimulation, 72 h): < 100 nM
IC50 ([2]; read-out: Suppression of cytokine production, Perforin (IC50), KIP-1 stimulation, 72 h): < 100 nM
IC50 ([2]; read-out: Suppression of cytokine production, TNFa (IC50), CD3/CD28 stimulation, 72 h): < 100 nM
IC50 ([2]; read-out: Suppression of cytokine production, TNFa (IC50), K562-CD19 stimulation, 72 h): < 100 nM
IC50 ([2]; read-out: Suppression of cytokine production, TNFa (IC50), KIP-1 stimulation, 72 h): < 100 nM
Suppression of cytokine production, IFNg (IC50) ([2]; K562-CD19 stimulation): Suppress
Suppression of cytokine production, IL-6 (IC50) ([2]; K562-CD19 stimulation): Suppress
SMILES: CC[C@@H]1CN(C(=O)NCC(F)(F)F)C[C@@H]1c1cnc2cnc3[nH]ccc3n12 [upadacitinib]
Cmax ([1]; clinical dosing, patient sera, repeat dose studies): 73.9 ng/mL
Protein binding ([1]; plasma protein binding, reported): ~50%
% viability ([3]; dose 50 nM, day 4): 74.4%
% viability ([3]; dose 50 nM, day 8): 69.5%
% viability ([3]; dose 50 nM, day 12): 80.6%
% viability ([3]; dose 100 nM, day 4): 64.1%
% viability ([3]; dose 100 nM, day 8): 69.2%
% viability ([3]; dose 100 nM, day 12): 66.4%
% viabili. ([3]; 10 nM, Day 0): 84%
% viabili. ([3]; 10 nM, Day 4): 92.6%
% viabili. ([3]; 10 nM, Day 8): 88.4%
% viabili. ([3]; 10 nM, Day 12): 71.6%
% viabili. ([3]; 20 nM, Day 0): 84%
% viabili. ([3]; 20 nM, Day 4): 93.8%
% viabili. ([3]; 20 nM, Day 8): 92%
% viabili. ([3]; 20 nM, Day 12): 72.7%
% viabili. ([3]; 40 nM, Day 0): 84%
% viabili. ([3]; 40 nM, Day 4): 91.4%
% viabili. ([3]; 40 nM, Day 8): 77%
% viabili. ([3]; 40 nM, Day 12): 73.2%
% viabili. ([3]; 60 nM, Day 0): 84%
% viabili. ([3]; 60 nM, Day 4): 90.6%
% viabili. ([3]; 60 nM, Day 8): 90.5%
% viabili. ([3]; 60 nM, Day 12): 76.3%
% viabili. ([3]; 80 nM, Day 0): 84%
% viabili. ([3]; 80 nM, Day 4): 88.3%
% viabili. ([3]; 80 nM, Day 8): 86.4%
% viabili. ([3]; 80 nM, Day 12): 75%
% viabili. ([3]; 100 nM, Day 0): 84%
% viabili. ([3]; 100 nM, Day 4): 84.2%
% viabili. ([3]; 100 nM, Day 8): 84.3%
% viabili. ([3]; 100 nM, Day 12): 72.5%
% viabi. ([3]; 10 nM, Day 0): 84%
% viabi. ([3]; 10 nM, Day 4): 85.2%
% viabi. ([3]; 10 nM, Day 8): 72.1%
% viabi. ([3]; 10 nM, Day 12): 72.7%
% viabi. ([3]; 20 nM, Day 0): 84%
% viabi. ([3]; 20 nM, Day 4): 82.1%
% viabi. ([3]; 20 nM, Day 8): 70.1%
% viabi. ([3]; 20 nM, Day 12): 74.8%
% viabi. ([3]; 40 nM, Day 0): 84%
% viabi. ([3]; 40 nM, Day 4): 79.3%
% viabi. ([3]; 40 nM, Day 8): 59.3%
% viabi. ([3]; 40 nM, Day 12): 73.8%
% viabi. ([3]; 60 nM, Day 0): 84%
% viabi. ([3]; 60 nM, Day 4): 67.9%
% viabi. ([3]; 60 nM, Day 8): 76.4%
% viabi. ([3]; 60 nM, Day 12): 68.9%
% viabi. ([3]; 80 nM, Day 0): 84%
% viabi. ([3]; 80 nM, Day 4): 70.9%
% viabi. ([3]; 80 nM, Day 8): 68.8%
% viabi. ([3]; 80 nM, Day 12): 62.5%
% viabi. ([3]; 100 nM, Day 0): 84%
% viabi. ([3]; 100 nM, Day 4): 59.3%
% viabi. ([3]; 100 nM, Day 8): 60.9%
% viabi. ([3]; 100 nM, Day 12): 61.7%
concentration at and above which severe effects on expansion were seen ([3]; further dose titrations, depending on the mode of stimulation): 20 to 40 nM
viability at 0 day, 50 nM [4]: 75%
viability at 0 day, 100 nM [4]: 75%
viability at 4 day, 50 nM [4]: 63.2%
viability at 4 day, 100 nM [4]: 59.9%
viability at 8 day, 50 nM [4]: 65.3%
viability at 8 day, 100 nM [4]: 62%
viability at 12 day, 50 nM [4]: 79%
viability at 12 day, 100 nM [4]: 67.5%
Monocyte-specific pSTAT1 signaling, inhibition [5, 8]: 100%
Monocyte-specific pSTAT3 signaling, inhibition [5, 8]: 100%
Monocyte-specific pSTAT5 signaling, inhibition [5, 8]: 63%
Monocyte-specific pSTAT1 signaling, inhibition ([5]; rh-GM-CSF-induced): na/ni
Monocyte-specific pSTAT3 signaling, inhibition ([5]; rh-GM-CSF-induced): na/ni
Monocyte-specific pSTAT5 signaling, inhibition ([5]; rh-GM-CSF-induced): 54%
Monocyte-specific pSTAT1 signaling, inhibition ([5]; rhIFNg-induced): 100%
Monocyte-specific pSTAT3 signaling, inhibition ([5]; rhIFNg-induced): 100%
Monocyte-specific pSTAT5 signaling, inhibition ([5]; rhIFNg-induced): 100%
Monocyte-specific pSTAT1 signaling, inhibition ([5]; rhIL6-induced): na/ni
Monocyte-specific pSTAT3 signaling, inhibition ([5]; rhIL6-induced): 100%
Monocyte-specific pSTAT5 signaling, inhibition ([5]; rhIL6-induced): na/ni
impact on CAR-T serial killing (percent cytotoxicity) [6]: negative impacts
Mean tumor cell death (%) ([7]; E:T ratio 1:1, dose 10 nM): 96.9%
Mean tumor cell death (%) ([7]; E:T ratio 1:1, dose 20 nM): 96.3%
Mean tumor cell death (%) ([7]; E:T ratio 1:1, dose 40 nM): 96.3%
Mean tumor cell death (%) ([7]; E:T ratio 1:1, dose 60 nM): 94.5%
Mean tumor cell death (%) ([7]; E:T ratio 1:1, dose 80 nM): 94.4%
Mean tumor cell death (%) ([7]; E:T ratio 1:1, dose 100 nM): 92%
Mean tumor cell death (%) ([7]; E:T ratio 1:3, dose 10 nM): 68.1%
Mean tumor cell death (%) ([7]; E:T ratio 1:3, dose 20 nM): 66.1%
Mean tumor cell death (%) ([7]; E:T ratio 1:3, dose 40 nM): 60.5%
Mean tumor cell death (%) ([7]; E:T ratio 1:3, dose 60 nM): 46.2%
Mean tumor cell death (%) ([7]; E:T ratio 1:3, dose 80 nM): 46.5%
Mean tumor cell death (%) ([7]; E:T ratio 1:3, dose 100 nM): 25.7%
Mean tumor cell death (%) ([7]; E:T ratio 1:9, dose 10 nM): 35.6%
Mean tumor cell death (%) ([7]; E:T ratio 1:9, dose 20 nM): 25.6%
Mean tumor cell death (%) ([7]; E:T ratio 1:9, dose 40 nM): 34.7%
Mean tumor cell death (%) ([7]; E:T ratio 1:9, dose 60 nM): 33.4%
Mean tumor cell death (%) ([7]; E:T ratio 1:9, dose 80 nM): 23%
Mean tumor cell death (%) ([7]; E:T ratio 1:9, dose 100 nM): 16.9%
